Source: patent US10669261B2, “Heteroarylhydroxypyrimidinones as agonists of the APJ receptor” (BRISTOL-MYERS SQUIBB COMPANY, priority 2015, dated 2020)

Molecular target: T1, human APJ receptor (Homo sapiens, UniProt P35414)
T1 construct: expressed in transfected cells
T1 sequence (P35414 1-380): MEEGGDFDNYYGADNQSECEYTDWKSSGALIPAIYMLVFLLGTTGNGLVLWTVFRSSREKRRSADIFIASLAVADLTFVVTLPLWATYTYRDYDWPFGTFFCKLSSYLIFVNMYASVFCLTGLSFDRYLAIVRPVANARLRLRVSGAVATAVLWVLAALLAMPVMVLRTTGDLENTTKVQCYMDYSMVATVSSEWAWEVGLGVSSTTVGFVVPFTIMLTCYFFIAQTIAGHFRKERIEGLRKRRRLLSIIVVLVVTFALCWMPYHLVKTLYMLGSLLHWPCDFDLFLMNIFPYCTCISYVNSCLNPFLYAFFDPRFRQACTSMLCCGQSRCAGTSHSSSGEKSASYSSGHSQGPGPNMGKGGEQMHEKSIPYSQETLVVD
Experiment: Intracellular cAMP accumulation assay (APJ hcAMP, HTRF)
Type: cell-based
Details: Table 2; HEK293 cells stably expressing human APJ receptor; read-out: hAPJ cAMP EC50 Potency range
Method in brief: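 HEK293 cells stably expressing the receptor (5,000/well) treated with compound plus […] and 2 μM forskolin for 30 min at room temperature; cAMP by HTRF against a cAMP standard curve. EC50 from variable-slope sigmoidal fit; Ymax as % of (Pyr1)apelin-13 inhibition.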

Row | Compound | EC50
1 | CCCCc1nc(O)c(-c2nnc(Cc3ccc(Cl)cn3)o2)c(=O)n1[C@@H](C)c1ccccc1 [Example 119, 2-butyl-5-{5-[(5-chloropyridin-2-yl)methyl]-1,3,4-oxadiazol-2-yl}-6-hydroxy-3-[(1S)-1-phenylethyl]-3,4-dihydropyrimidin-4-one] | 0.01 to 10 nM
2 | CCCCc1nc(O)c(-c2nnc(Cc3ccc(Cl)cn3)o2)c(=O)n1[C@H](C)c1ccccc1 [Example 120, 2-butyl-5-{5-[(5-chloropyridin-2-yl)methyl]-1,3,4-oxadiazol-2-yl}-6-hydroxy-3-[(1R)-1-phenylethyl]-3,4-dihydropyrimidin-4-one] | 0.01 to 10 nM
3 | CCCCc1nc(O)c(-c2nnc(Cc3noc4ccccc34)o2)c(=O)n1C(C)c1cccnc1 (centres unmarked) [Example 121, 5-{5-[(1,2-benzoxazol-3-yl)methyl]-1,3,4-oxadiazol-2-yl}-2-butyl-6-hydroxy-3-[1-(pyridin-3-yl)ethyl]-3,4-dihydropyrimidin-4-one] | 100 to 300 nM
4 | CCCCc1nc(O)c(-c2nnc(Cc3ccc(Cl)cn3)o2)c(=O)n1[C@@H]1CCc2ccccc21 [Example 122] | 10 to 100 nM
5 | CCCCc1nc(O)c(-c2nnc(Cc3ccc(Cl)cn3)o2)c(=O)n1C(C)c1cccnc1 (centres unmarked) [Example 123, 2-butyl-5-{5-[(5-chloropyridin-2-yl)methyl]-1,3,4-oxadiazol-2-yl}-6-hydroxy-3-[1-(pyridin-3-yl)ethyl]-3,4-dihydropyrimidin-4-one] | 10 to 100 nM
